Data as given in BindingDB's records for doi:10.1016/0024-3205(85)90028-1 (Universit&Eacute, 1985).
Counter-ions that a name gives are not always drawn.

The compounds below were run against D(1A) dopamine receptor (Rattus norvegicus, UniProt P18901).
Sequence of D(1A) dopamine receptor (P18901 whole entry): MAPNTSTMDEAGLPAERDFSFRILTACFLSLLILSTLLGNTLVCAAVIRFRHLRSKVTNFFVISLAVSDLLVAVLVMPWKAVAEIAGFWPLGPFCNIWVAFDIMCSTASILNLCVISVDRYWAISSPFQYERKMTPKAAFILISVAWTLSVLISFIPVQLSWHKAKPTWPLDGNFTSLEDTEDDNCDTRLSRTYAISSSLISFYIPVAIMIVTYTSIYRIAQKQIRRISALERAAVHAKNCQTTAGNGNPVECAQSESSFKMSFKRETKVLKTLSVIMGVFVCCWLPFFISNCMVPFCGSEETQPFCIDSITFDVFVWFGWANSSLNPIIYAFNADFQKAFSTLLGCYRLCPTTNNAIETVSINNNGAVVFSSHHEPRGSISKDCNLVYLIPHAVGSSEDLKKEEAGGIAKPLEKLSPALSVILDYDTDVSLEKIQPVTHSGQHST
`O=c1[nH]c2ccccc2n1CCCN1CCC(n2c(=O)[nH]c3cc(Cl)ccc32)CC1` gave a Ki of over 10000 nM. `NC1CCc2cc(O)c(O)cc2C1` (stereo not given) gave a Ki of 5120 nM. Compound `O=c1[nH]c2ccccc2n1C1CCN(CCCC(c2ccc(F)cc2)c2ccc(F)cc2)CC1` [1-(1-(4,4-bis(4-fluorophenyl)butyl)piperidin-4-yl)-1H-benzo[d]imidazol-2(3H)-one] has a Ki of 1420 nM. With `OCCN1CCN(CCCN2c3ccccc3Sc3ccc(C(F)(F)F)cc32)CC1` [2-[4-[3-[2-(trifluoromethyl)phenothiazin-10-yl]propyl]piperazin-1-yl]ethanol;hydrochloride] the Ki was 4.5 nM. `O=C(c1ccc(F)cc1)C1CCN(CCn2c(=O)[nH]c3ccccc3c2=O)CC1` [3-(2-{4-[(4-fluorophenyl)carbonyl]piperidin-1-yl}ethyl)-1,2,3,4-tetrahydroquinazoline-2,4-dione] gave a Ki of 200 nM. In the case of `OCCN1CCN(CCCN2c3ccccc3Sc3ccc(Cl)cc32)CC1` [4-[3-(2-chlorophenothiazin-10-yl)propyl]-1-piperazineethanol], the Ki is reported as 44 nM. With `CN1CCN(CC/C=C2/c3ccccc3Sc3ccc(S(=O)(=O)N(C)C)cc32)CC1` [MLS000028463] the Ki was 1520 nM. In the case of `CC(CN1c2ccccc2Sc2ccccc21)N(C)C` (stereo not drawn) [N,N,alpha-trimethyl-10H-phenothiazine-10-ethanamine], the Ki is reported as 1780 nM. In the case of `NCCc1c[nH]c2ccc(O)cc12` [[3H]-5-HT], the Ki is reported as 5000 nM. For `c1ccc2c(c1)Nc1ccccc1S2` [phenothiazine], the Ki was over 10000 nM.
